How the values were obtained:
[1] = test system: forearm of a human volunteer; experiment: Human vasoconstriction (blanching) testing, AUC through 18 hours; format: in vivo; details: for effect on the time period during which hydrocortisone displayed activity / effect on the vasoconstrictor activity of hydrocortisone: co-applied with hydrocortisone; for effect on the vasoconstrictor activity of hydrocortisone: molar ratio hydrocortisone:enhancer 1:5 to 1:1, particularly at the lower concentrations
Protocol: The combinations of the present invention have undergone human vasoconstriction, or blanching, testing. Such testing gives a reliable indication of local anti-inflammatory/glucocorticoid activity.
Test compounds at varying mM concentrations as noted below were dissolved in ethanol/propylene glycol (9/1) solution, and 20 μL of the mixtures were applied to filter paper discs, 0.7 cm in diameter. After ethanol evaporation, each disc was attached to waterproof adhesive tape, then applied to the forearm of a human volunteer and left in place for 4 hours. Groups of 6 forearms were tested at each concentration and the intensity of vasoconstriction was judged at 2, 4, 6, 8, 10, 12 and 18 hours after removal of the discs, except where otherwise indicated.
The grading scale for the vasoconstriction activity was as follows: 0, normal skin; 1, slight pallor of indistinct outline; 2, pallor with at least two corners outlined; 3, even pallor with a clear outline of the application sites; 4, very intense pallor. The scores were totaled at each concentration at each time after removal to give a total score at each time interval and an overall total for each concentration. The higher the total score, the greater the blanching or anti-inflammatory effect.
Tested in this manner were hydrocortisone, Δ^1-cortienic acid, the methyl ester of Δ^1-cortienic acid, a combination of hydrocortisone plus Δ^1-cortienic acid, and a combination of hydrocortisone plus the methyl ester of Δ^1-cortienic acid. The structures of the test compounds are shown below:
The data for Δ^1-CA alone and Δ^1-MeCA alone are from a group of 8 volunteers, rather than the 6 used for the other testing.

[2] = test system: forearms of human volunteers; experiment: Further human vasoconstriction testing, AUC through 24 hours; format: in vivo; details: for AUC (sum of the individual vasoconstriction scores through 24 hours): total of 6 tests; for effect of increasing the ratio of (II) to (Ia/Ib) to about 2:1: HC 25 mM + enhancer 50 mM versus 1:1; for synergism with HC: ratios of HC:enhancer from 5:1 to 1:2
Protocol: The objective of this study was to evaluate the effect of Δ^1-cortienic acid (Δ^1-CA) and the methyl ester of Δ^1-cortienic acid (Δ^1-MeCA) on the vasoconstriction effect of hydrocortisone (HC). The structures for HC, Δ^1-CA and Δ^1-MeCA are given above.
HC (50 mM), Δ^1-CA (0, 10, 25, 50 and 100 mM) and Δ^1-MeCA (0, 10, 25, 50 and 100 mM) were dissolved in a vehicle containing absolute ethanol and propylene glycol (9:1). The resultant HC solutions were mixed (1:1) with vehicle only, or with the Δ^1-CA or Δ^1-MeCA solutions, so that 25 mM of final HC solutions containing various concentrations of Δ^1-CA or Δ^1-MeCA (0 to 50 mM) were obtained. The resultant mixtures (20 μl) were loaded onto circular paper discs (7 mm diameter) that were attached to a water impervious adhesive film (3M). After evaporation of ethanol, the films were applied to the forearms of human volunteers for 4 hours.
Subsequently, the vasoconstriction reaction was judged by the appearance of pallor at various time intervals after the removal of the discs and films (2, 4, 6, 8, 10, 12, 18 and 24 hours after removal). The grading scale was as follows: 0, normal skin; 1, slight pallor; 2, pallor with at least two corners outlined; 3, even pallor with a clear outline of the application sites; 4, very intense pallor. Due to the relatively high variations in response between volunteers, the total score of 6 tests at each time period was taken for the activity evaluation. As before, an overall total for each concentration was obtained. The results were as follows, where AUC was estimated at the sum of the individual scores through 24 hours.

[3] = target: T1, receptor ([3H]-triamcinolone acetonide as tracer) (Rattus norvegicus, UniProt P06536); details: medium containing 10^−5M cortienic acid as competitor; cited from earlier work
T1 sequence (P06536 1-795): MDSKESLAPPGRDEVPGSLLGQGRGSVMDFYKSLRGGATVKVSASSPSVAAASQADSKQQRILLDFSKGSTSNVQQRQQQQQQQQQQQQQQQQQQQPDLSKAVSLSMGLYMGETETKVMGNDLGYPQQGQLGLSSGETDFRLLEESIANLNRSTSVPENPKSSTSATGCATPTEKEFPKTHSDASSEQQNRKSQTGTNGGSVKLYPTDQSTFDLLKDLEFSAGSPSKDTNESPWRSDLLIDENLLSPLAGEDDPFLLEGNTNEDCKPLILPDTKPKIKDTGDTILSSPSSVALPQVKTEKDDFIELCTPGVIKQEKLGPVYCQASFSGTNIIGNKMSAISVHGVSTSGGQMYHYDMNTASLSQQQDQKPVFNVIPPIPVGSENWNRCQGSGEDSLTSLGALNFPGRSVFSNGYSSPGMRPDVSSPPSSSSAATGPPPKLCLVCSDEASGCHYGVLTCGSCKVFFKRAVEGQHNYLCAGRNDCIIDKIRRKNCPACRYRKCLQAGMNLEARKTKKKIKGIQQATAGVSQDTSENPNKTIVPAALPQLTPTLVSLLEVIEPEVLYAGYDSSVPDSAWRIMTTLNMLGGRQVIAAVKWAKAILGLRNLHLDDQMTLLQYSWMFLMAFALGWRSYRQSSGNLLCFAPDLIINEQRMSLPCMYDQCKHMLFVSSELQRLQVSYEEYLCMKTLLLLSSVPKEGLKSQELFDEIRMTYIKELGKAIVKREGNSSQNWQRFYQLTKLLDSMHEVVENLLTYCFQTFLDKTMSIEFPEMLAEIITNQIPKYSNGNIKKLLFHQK

[4] = test system: forearms of human volunteers; experiment: Further human vasoconstriction testing, AUC through 24 hours; format: in vivo; details: enhancing agent alone, 0.5-50 mM
[5] = enhancing agent alone, 0.5 mM, group of 8 volunteers
[6] = enhancing agent alone, 2.5 mM, group of 8 volunteers
[7] = enhancing agent alone, 5 mM, group of 8 volunteers
[8] = enhancing agent alone, 25 mM, group of 8 volunteers
[9] = enhancing agent alone, 50 mM, group of 8 volunteers

C[C@]12CCC(=O)C=C1CC[C@@H]1[C@@H]2[C@@H](O)C[C@@]2(C)[C@H]1CC[C@]2(O)C(=O)CO [Hydrocortisone, hydrocortisone, reference compound]
time after removal of the disc by which activity was nearly gone ([1]; hydrocortisone alone): ~12 h | AUC (sum of the individual vasoconstriction scores through 18 hours) ([1]; hydrocortisone alone, 1 mM (0.036% by weight), 20 μL on disc, 4 hours, 6 forearms): 0 | AUC (sum of the individual vasoconstriction scores through 18 hours) ([1]; hydrocortisone alone, 2 mM (0.073%), 6 forearms): 0 | AUC (sum of the individual vasoconstriction scores through 18 hours) ([1]; hydrocortisone alone, 5 mM (0.181%), 6 forearms): 0 | AUC (sum of the individual vasoconstriction scores through 18 hours) ([1]; hydrocortisone alone, 10 mM (0.363%), 6 forearms): 3 | AUC (sum of the individual vasoconstriction scores through 18 hours) ([1]; hydrocortisone alone, 25 mM (0.906%), 6 forearms): 5 | AUC (sum of the individual vasoconstriction scores through 18 hours) ([1]; hydrocortisone alone, 50 mM (1.81%), 6 forearms): 18 | vasoconstriction activity when tested alone [1]: exhibited activity | AUC (sum of the individual vasoconstriction scores through 24 hours) ([2]; HC 25 mM + Δ^1-CA 0 mM (HC alone, Δ^1-CA series)): 14 | AUC (sum of the individual vasoconstriction scores through 24 hours) ([2]; HC 25 mM + Δ^1-MeCA 0 mM (HC alone, Δ^1-MeCA series)): 33

CCOC(=O)O[C@]1(C(=O)OCCl)CC[C@H]2[C@@H]3CCC4=CC(=O)C=C[C@]4(C)[C@H]3[C@@H](O)C[C@@]21C [loteprednol, loteprednol etabonate]
intrinsic activity in receptor binding [3]: intrinsically active

COC(=O)[C@@]1(O)CCC2C3CCC4=CC(=O)C=CC4(C)C3C(O)CC21C (stereo partly drawn) [Δ^1-Cortienic Acid Methyl Ester, methyl 11β,17α-dihydroxyandrosta-1,4-dien-3-one-17β-carboxylate]
effect on the time period during which hydrocortisone displayed activity [1]: able to extend the time period | effect on the vasoconstrictor activity of hydrocortisone [1]: enhanced the vasoconstrictor activity of hydrocortisone | AUC (sum of the individual vasoconstriction scores through 18 hours) [1, 5]: 0 | AUC (sum of the individual vasoconstriction scores through 18 hours) [1, 6]: 0 | AUC (sum of the individual vasoconstriction scores through 18 hours) [1, 7]: 0 | AUC (sum of the individual vasoconstriction scores through 18 hours) [1, 8]: 0 | AUC (sum of the individual vasoconstriction scores through 18 hours) [1, 9]: 0 | vasoconstriction activity when tested alone [1]: neither Δ^1-cortienic acid nor Δ^1-cortienic acid methyl ester had any vasoconstriction activity | effect of increasing the ratio of (II) to (Ia/Ib) to about 2:1 [2]: does not appear to add any significant benefit | time after which pallor could still be detected in one arm ([2]; co-applied with HC): ≥ 5 days | effect on the vasoconstriction activity of HC ([2]; co-applied with HC 25 mM): increased the vasoconstriction activity of HC | increasing activity and duration compared with Δ^1-CA ([2]; co-applied with HC 25 mM): higher increasing activity and longer duration | synergism with HC [2]: synergistic results | AUC (sum of the individual vasoconstriction scores) [4]: 0

CC12C=CC(=O)C=C1CCC1C2C(O)CC2(C)C1CC[C@]2(O)C(=O)O (stereo partly drawn) [Δ^1-Cortienic Acid, 11β,17α-dihydroxyandrosta-1,4-dien-3-one-17β-carboxylic acid]
effect on the time period during which hydrocortisone displayed activity [1]: able to extend the time period | effect on the vasoconstrictor activity of hydrocortisone [1]: enhanced the vasoconstrictor activity of hydrocortisone | AUC (sum of the individual vasoconstriction scores through 18 hours) [1, 5]: 0 | AUC (sum of the individual vasoconstriction scores through 18 hours) [1, 6]: 0 | AUC (sum of the individual vasoconstriction scores through 18 hours) [1, 7]: 0 | AUC (sum of the individual vasoconstriction scores through 18 hours) [1, 8]: 0 | AUC (sum of the individual vasoconstriction scores through 18 hours) [1, 9]: 0 | vasoconstriction activity when tested alone [1]: neither Δ^1-cortienic acid nor Δ^1-cortienic acid methyl ester had any vasoconstriction activity | effect of increasing the ratio of (II) to (Ia/Ib) to about 2:1 [2]: appears to decrease activity | effect on the vasoconstriction activity of HC ([2]; co-applied with HC 25 mM): increased the vasoconstriction activity of HC | synergism with HC [2]: synergistic results | AUC (sum of the individual vasoconstriction scores) [4]: 0
